Experimental data reported in ChEMBL document CHEMBL3507680, “University of Dundee, Gates Library screen for HepG2 cell viability”.

Experiment: Human HepG2 cell viability assay in 384 well format
Type: toxicity, cell-based
Set-up: dose 125 nL, time 70.5 hour; concentration not given beside the values
Conditions: HepG2 cells, read-out: Inhibition

CN(C)C(=O)CN1CCCC(Cc2ccc(N3CCCC3)nn2)C1 (stereo not given)
cytotoxicity at 70.5 h: -9.12%

CC(C)C(C(=O)N1CCCN(Cc2nccn2C)CC1)N1CCCC1 (stereo not given)
cytotoxicity at 70.5 h: 30.4%

CC(NC(=O)COC1CCCC1)c1nc(-c2ccccc2)c[nH]1 (stereo not given)
cytotoxicity at 70.5 h: -1.37%

O=C(CNc1cccc(CC(F)(F)F)c1)NCc1ccco1
cytotoxicity at 70.5 h: -4.32%

CCNC(=O)c1ccc(NC2CCOC3(CCCCC3)C2)nn1 (stereo not given)
cytotoxicity at 70.5 h: 16.8%

Cc1nc(CN2CCOC(CNc3cccnn3)C2)oc1C (stereo not given)
cytotoxicity at 70.5 h: 30.3%

OC1(CNCCSc2ccccn2)CCCNC1 (stereo not given)
cytotoxicity at 70.5 h: -6.54%

CNC(=O)NCC(=O)N(C)C(c1ccc(Cl)cc1)c1cccnc1 (stereo not given)
cytotoxicity at 70.5 h: 21.3%

CN(C)c1ncccc1CN1CCOC(C(=O)Nc2ccccc2)C1 (stereo not given)
cytotoxicity at 70.5 h: -7.2%

Cc1nccn1-c1cccc(C2CCCN(C3CCCC3)C2)n1 (stereo not given)
cytotoxicity at 70.5 h: -4.43%

Cc1noc(C)c1CN1CC[C@H]2OCC[C@@]2(C(=O)NC2CCCC2)C1
cytotoxicity at 70.5 h: -9.16%

Cc1ccccc1-c1cc(NC(=O)Cn2ccccc2=O)n(C)n1
cytotoxicity at 70.5 h: -0.508%

CC(C(=O)N1CCN(Cc2ccc(C#N)cc2)CC1)n1ccnc1 (stereo not given)
cytotoxicity at 70.5 h: -0.223%

CC(C)c1nccn1-c1cncc(C2CCCN(C3CCCCC3)C2)n1 (stereo not given)
cytotoxicity at 70.5 h: -0.366%

CCc1noc(CN(Cc2cccs2)C2CC2)n1
cytotoxicity at 70.5 h: 0.387%

COc1cc(CNC(C)Cn2cccn2)cc(OC)c1 (stereo not given)
cytotoxicity at 70.5 h: -9.25%

O=C1N(Cc2cccc(F)c2F)CCCC1(O)CN1CCCOCC1 (stereo not given)
cytotoxicity at 70.5 h: -1.1%

O=C1N[C@@H]2CCN(C(=O)c3ccccc3)[C@@H]2C(=O)N1c1ccc(F)cc1
cytotoxicity at 70.5 h: -12.9%

Cc1nc(N2CCCC2)nc2c1CCN(C(=O)NC1CCCC1)CC2
cytotoxicity at 70.5 h: 1.4%

Cn1nc2c(cc1=O)CN(Cc1nc(-c3ccsc3)no1)CC2
cytotoxicity at 70.5 h: -19.7%

COc1cc2c(cc1-c1nc3c(cnn3C(C)C3CC3)[nH]1)OCO2 (stereo not given)
cytotoxicity at 70.5 h: -2.31%

CC(C)C(C)(C#N)NC(=O)CN1CCCN(Cc2ccccc2F)CC1 (stereo not given)
cytotoxicity at 70.5 h: -3.81%

CCC(CNC1CCN(C(C)=O)CC1)Oc1cccc(C)c1 (stereo not given)
cytotoxicity at 70.5 h: -6.04%

CS(=O)(=O)c1nccn1CCOc1ccc(F)cc1Cl
cytotoxicity at 70.5 h: -2.15%

Cc1csc(CN(CC2CCCO2)C(=O)c2ccc(C)nc2C)n1 (stereo not given)
cytotoxicity at 70.5 h: 15.4%

O=C1COC2(CCN(Cc3ccccn3)CC2)CN1CC1CC1
cytotoxicity at 70.5 h: -0.792%

CCc1cc(N[C@H]2CCC[C@H]2CO)n2nccc2n1
cytotoxicity at 70.5 h: 6%

CN(C)c1cc(C(=O)N2CCN(c3cc(C#N)ccn3)CC2)ccn1
cytotoxicity at 70.5 h: -16.5%

Cc1nc2c(c(=O)[nH]1)CCN(Cc1ccc3c(c1)CCCN3C)C2
cytotoxicity at 70.5 h: 0.602%

N#Cc1cc(F)ccc1NCC1CCN(S(=O)(=O)C(F)F)CC1
cytotoxicity at 70.5 h: -14.3%

Cc1c(NC(=O)NCC(C)N2CCOCC2)cccc1OC(F)F (stereo not given)
cytotoxicity at 70.5 h: -0.748%

O=C(Cc1ccsc1)NCC1OCCc2cn(CC3CC3)nc21 (stereo not given)
cytotoxicity at 70.5 h: -2.21%

C[S+]([O-])CCCNC(=O)c1cc(Br)c2c(c1)OCCO2 (stereo not given)
cytotoxicity at 70.5 h: -0.213%

CCc1cc(N(C)CCC(O)c2ccccc2)n2nccc2n1 (stereo not given)
cytotoxicity at 70.5 h: 30.6%

O=C1CC2(CCN(Cc3ccccn3)C2)CN1c1cccnc1 (stereo not given)
cytotoxicity at 70.5 h: 1.41%

Cc1ccc(CN(CCCn2ccnc2)Cc2ccccc2O)s1
cytotoxicity at 70.5 h: 3.23%

O=C(Nc1ncnc2c1CCC2)c1cccc(F)c1
cytotoxicity at 70.5 h: 11.5%

Cn1nc(-c2cccs2)cc1[C@H]1CN2CC[C@H]1C[C@@H]2CN
cytotoxicity at 70.5 h: -6.9%

CSc1cccc(CN(C)C(=O)Cn2ncc(N3CCCC3)cc2=O)c1
cytotoxicity at 70.5 h: -3.66%

Cc1cccc(NC(=O)[C@@H]2CCCN2Cc2ccccc2C#N)n1
cytotoxicity at 70.5 h: -10.3%

COc1ccccc1C(=O)N(C)Cc1nnc2ccccn12
cytotoxicity at 70.5 h: -14%

CC(C)Cc1cc(C(=O)NCC(c2ccc(F)cc2)N(C)C)n(C)n1 (stereo not given)
cytotoxicity at 70.5 h: -15.4%

CC(C)C(C(=O)NCC1CC1)n1cnc2cc(F)c(F)cc21 (stereo not given)
cytotoxicity at 70.5 h: -1.42%

CC1CCCCN1C(=O)Cn1cnc(C#N)n1 (stereo not given)
cytotoxicity at 70.5 h: -6.77%

COc1ccc(CNC(C)c2cnc3cc(C)nn3c2C)cc1 (stereo not given)
cytotoxicity at 70.5 h: -2.4%

Cc1cnn(Cc2cc(F)ccc2F)c1NC(=O)C1COCCO1 (stereo not given)
cytotoxicity at 70.5 h: -0.231%

CC(CNC(=O)c1ccon1)Oc1cccc(Br)c1 (stereo not given)
cytotoxicity at 70.5 h: 4.03%

CCn1ccnc1CN1CCN(Cc2cc(C#N)ccc2F)CC1
cytotoxicity at 70.5 h: -3.57%

CCN1CCN(C(=O)c2ccc(Cn3ccccc3=O)o2)CC1
cytotoxicity at 70.5 h: -9.18%

O=S(=O)(N1CCCC1)N(Cc1ccccc1)CC1CCCO1 (stereo not given)
cytotoxicity at 70.5 h: -7.82%

Cc1nc(C2CCCN2C(=O)Cc2ccc(F)cc2)nc(O)c1C (stereo not given)
cytotoxicity at 70.5 h: 2.83%

Cn1cc(C(=O)Nc2ccc3c(c2)N(C(=O)c2ccco2)CC3)nn1
cytotoxicity at 70.5 h: 0.738%

Cc1ccccc1[C@@H]1CN(C(=O)c2ccc3[nH]nnc3c2)C[C@H]1C(=O)O
cytotoxicity at 70.5 h: -4.82%

CCn1ncc(-c2cc(C(F)F)nc3sc(C(N)=O)c(N)c23)c1C
cytotoxicity at 70.5 h: 9.78%

NC(=O)C1CCCN1C1CCN(C(=O)c2ccc3c(c2)OCO3)CC1 (stereo not given)
cytotoxicity at 70.5 h: -1.65%

c1cncc(CN2CCC3(CC2)CC(c2cccnc2)CO3)c1 (stereo not given)
cytotoxicity at 70.5 h: -6.23%

CC1CCN(c2ccc(C(=O)N3CCCC3c3nncn3C)cn2)CC1 (stereo not given)
cytotoxicity at 70.5 h: 8.02%

O=C(NCc1cccc(N2CCCCC2=O)c1)[C@@H](O)c1ccccc1
cytotoxicity at 70.5 h: -7.54%

O=C(NC1CC2(CCN(CCO)CC2)Oc2ccccc21)c1csnn1 (stereo not given)
cytotoxicity at 70.5 h: -0.338%

COc1ncccc1CNC(=O)Nc1cccnc1N1CCCC1
cytotoxicity at 70.5 h: 5.6%

CC(=O)Nc1ccc(SCC(=O)NCC2CCCO2)nn1 (stereo not given)
cytotoxicity at 70.5 h: -2.02%

Cc1nc(C)n(CC2CCCN(CCOc3cccc(C#N)c3)C2)n1 (stereo not given)
cytotoxicity at 70.5 h: 40.4%

CC(C)NC(=O)NC[C@H]1OC[C@@H](NCc2ccccc2F)[C@@H]1O
cytotoxicity at 70.5 h: -4.73%

Cc1nnc(C2CCN(C(=O)c3ccsc3)CC2)s1
cytotoxicity at 70.5 h: -5.71%

CCc1ccc(NC(=O)N2C[C@H]3CC[C@@]4(N=C(C)N(C)C4=O)[C@H]3C2)cc1
cytotoxicity at 70.5 h: 44.3%

CC(Nc1ccc2c(c1)CCC2)c1nc(C2CC2)no1 (stereo not given)
cytotoxicity at 70.5 h: -3.74%

Cc1cc(C(=O)NS(=O)(=O)Cc2ccon2)c(C)n1C(C)C
cytotoxicity at 70.5 h: -4.61%

Cc1n[nH]c(C2CN(C(=O)c3ccc4c(c3)COC4)CCO2)n1 (stereo not given)
cytotoxicity at 70.5 h: -1.57%

Cc1occc1C(=O)N1CCOC2(CCCC2)C1
cytotoxicity at 70.5 h: -3.65%

CC(C)(C)NCC(=O)N1CCCC(n2ccnc2)C1 (stereo not given)
cytotoxicity at 70.5 h: -9.3%

O=C(CNc1ccc(F)cc1OCC(F)(F)F)NCC(F)(F)F
cytotoxicity at 70.5 h: 13.1%

COc1cccc(-c2nc(C)c(C(=O)N[C@H](CO)CCSC)s2)c1
cytotoxicity at 70.5 h: -5.73%

Cc1nc(CN(C)C(=O)Nc2cccc(COC(C)C)c2C)no1
cytotoxicity at 70.5 h: -4.14%

CC(C(=O)Nc1ccnn1C(C)C)N1CCCN(c2nccs2)CC1 (stereo not given)
cytotoxicity at 70.5 h: -3.68%

Cc1nnc(N2C[C@@H](Oc3ccccn3)[C@H]3OCCC[C@H]32)s1
cytotoxicity at 70.5 h: -4.15%

O=C(Nc1ccccc1)C1=NOC2(CCCNC2)C1 (stereo not given)
cytotoxicity at 70.5 h: 18.4%

Cc1ccc(CN2C[C@H](OCC3CCOCC3)[C@H]3COC[C@H]32)o1
cytotoxicity at 70.5 h: 17%

COc1cccc(CN(C)Cc2[nH]c3ccccc3c2C)c1O
cytotoxicity at 70.5 h: 1.38%

Cc1cc(S(=O)(=O)NCc2cccc(C(=O)N3CCCC3)c2)c(C)s1
cytotoxicity at 70.5 h: -0.781%

Cc1ccnc(NC(=O)C(C)Cn2cncn2)c1 (stereo not given)
cytotoxicity at 70.5 h: 13.8%

COc1cccc(CN2C[C@H]3CC[C@H]2C3)c1OCCN1CCOCC1
cytotoxicity at 70.5 h: -2.04%

CCOC(C)c1nc(CN2CCC(NC(C)C)CC2)cs1 (stereo not given)
cytotoxicity at 70.5 h: -2.82%

Cc1c[nH]nc1C1CCCCN1C(=O)CCn1nccc1C (stereo not given)
cytotoxicity at 70.5 h: 11.5%

CCOc1ccc(C(=O)N2CCCC2c2cnn(C)c2)cn1 (stereo not given)
cytotoxicity at 70.5 h: -5.51%

COc1ccc(CN2CCN(C(C)=O)CC3(CC(=O)N(C)C3)C2)cc1 (stereo not given)
cytotoxicity at 70.5 h: -0.064%

CSC1(CNC(=O)NCc2sccc2C)CCOCC1
cytotoxicity at 70.5 h: 2.45%

Cn1c(=O)c2c(c3ccccc31)OC(C)(C)CC2
cytotoxicity at 70.5 h: -9.34%

Cc1cc(C)c2nc(CN[C@H]3CCCNC3)cc(O)c2c1
cytotoxicity at 70.5 h: -2.89%

Cc1ccccc1-n1cc(C2=CCN(CCN3CCOCC3)CC2)cn1
cytotoxicity at 70.5 h: 12.8%

NC(=O)CN1CCOCC(Cc2ccccc2Cl)C1 (stereo not given)
cytotoxicity at 70.5 h: -3.99%

COc1ccccc1OC1CCN(c2ccncc2)CC1
cytotoxicity at 70.5 h: 12.9%

CSc1ccc(S(=O)(=O)NC2CNC(=O)C2)cc1 (stereo not given)
cytotoxicity at 70.5 h: -3.59%

CN(C)CCN1CCCC12CCN(C(=O)c1ccco1)CC2
cytotoxicity at 70.5 h: -6.82%

COc1ccccc1C1(CNCc2ccc([S+](C)[O-])cc2)CC1 (stereo not given)
cytotoxicity at 70.5 h: -6.54%

CC(=O)N1CCCN(Cc2csc(C)n2)c2ccccc21
cytotoxicity at 70.5 h: -2.52%

CCCn1ccnc1CN1CCCC(O)(CN(C)C)CC1 (stereo not given)
cytotoxicity at 70.5 h: -3.55%

O=C(C1CN(CC2CCOCC2)CC12CCOCC2)N1CCOCC1 (stereo not given)
cytotoxicity at 70.5 h: -2.61%

Cc1cc(C(=O)N2CCCC2)ccc1NCCO
cytotoxicity at 70.5 h: -10.2%

O=C(NCC1CC1)[C@@H]1CCO[C@@H]2CCN(Cc3ccc(F)cc3)C[C@H]21
cytotoxicity at 70.5 h: -4.34%

CC(C)CN1CCN(C(=O)c2cccnc2-n2cncn2)CC1
cytotoxicity at 70.5 h: 11.2%

CC(=O)N1N=C(COc2ccc(Cl)cc2)OC1c1ccccc1 (stereo not given)
cytotoxicity at 70.5 h: 17%

O=C(c1ccc(Cn2cnnn2)cc1)N1CC[C@H](CO)[C@H](O)C1
cytotoxicity at 70.5 h: -8.21%

CC1COC2(CCN(C(=O)Cc3ccncc3)CC2)C1 (stereo not given)
cytotoxicity at 70.5 h: -0.819%

CC1CCN(c2ccc(CNC(=O)NCCn3ccnc3)cn2)CC1
cytotoxicity at 70.5 h: -0.689%

Cc1cc(C(=O)Nc2nc3c(s2)CN(S(=O)(=O)C2CC2)CC3)c(C)o1
cytotoxicity at 70.5 h: 4.31%

CC(C)(C)c1nnc(CN2CCC(c3cc4ccccc4[nH]3)CC2)o1
cytotoxicity at 70.5 h: 17.4%

COCCN1C(=O)C2(CCC(C(=O)Nc3ccccn3)CC2)N=C1C (stereo not given)
cytotoxicity at 70.5 h: -11.2%

COC(=O)c1oc(CNC(C)(C)CO)cc1C
cytotoxicity at 70.5 h: -5.24%

O=C(COCc1ccccc1Cl)N1CCN(c2ncccn2)CC1
cytotoxicity at 70.5 h: 6.02%

COc1cccc(CCC2CCCN(C(C)=O)C2)c1 (stereo not given)
cytotoxicity at 70.5 h: -1.99%

CN1CCN(c2cc(CNC(=O)c3ccsc3)ccn2)CC1
cytotoxicity at 70.5 h: 1%

Cn1ccnc1CN1CCc2ncnc(N3CCCC(C#N)C3)c2CC1 (stereo not given)
cytotoxicity at 70.5 h: 26.4%

O=C(c1ccncc1)N1CCn2c(nnc2-c2ccccc2)C1
cytotoxicity at 70.5 h: -6.68%

Cn1cc(NC(=O)Nc2cccc3cccnc23)ccc1=O
cytotoxicity at 70.5 h: 53.3%

CCC1CN(CC(=O)NCCC#N)CCO1 (stereo not given)
cytotoxicity at 70.5 h: 2.5%
